# Measurements reported in patent publication US20180021456A1, “SELF-ASSEMBLED TARGETED INCLUSION COMPLEXES FOR DRUG DELIVERY” (UNIVERSITY OF SOUTH FLORIDA, priority 2015, published 2018).
# What was measured:
# [1] = system: extracellular signal-regulated kinases 1 and 2 (ERK1 and ERK2); test: Rapid phosphorylation of ERK1 and ERK2 (MAPK) after treatment; assay type: cell-based; details: treatment at 1 μM
# From the text: Western Blot: In all cases, unless otherwise indicated, the western blots were visualized by Bio-Rad digital imaging system and analyzed by Quantity One 1-D analyzing software.
# [2] = system: MCF-7 cells; test: Competition assay of estrone and tamoxifen with CDE1-Ada-DOX uptake in MCF-7 cells (flow cytometry); assay type: cell-based, human; details: CDE1-Ada-DOX 2 μM
# Method: FIG. 17 is a bar graph of the fluorescence intensity for competition assay of CDE1-Ada-DOX at 2 μM in MCF-7 cells in the presence of estrone and tamoxifen at 0.1-10 μM. The results are represented as means±SD from triplicate determinations.
# Flow cytometer: In all cases, unless otherwise indicated, the flow cytometric analysis was performed on a FACS (Becton Dickinson Immunocytometry Systems, San Jose, Calif.) by counting 10,000 events.
# Moreover, the competition assay of estrone and tamoxifen with CDE1-Ada-DOX in MCF-7 cells was conducted and is shown in FIG. 17. […] Moreover, the ER antagonist-tamoxifen, which is the most prescribed medicine to treat hormone receptor-positive breast cancer, is capable of binding to the estrogen receptor but blocks its activity. […] While for both estrone and tamoxifen, inhibition saturated at concentrations higher than 5 μM. […] Addition of an Ada-DOX guest led to the decomplexation of the estrogen moiety. […] The results are consistent and replicable with the TEM/SEM observations.
SMILES,time of maximum MAPK phosphorylation [1],"inhibition at 5 µM ([2]; Homo sapiens, MCF7, competitor at 5 μM)",inhibition of CDE1-Ada-DOX uptake ([2]; competitor at 1 μM and above (p<0.001))
"C[C@]12CC[C@@H]3c4ccc(O)cc4CC[C@H]3[C@@H]1CC[C@@H]2O [E2, 17β-estradiol]",10 min,,
CC/C(=C(\c1ccccc1)c1ccc(OCCN(C)C)cc1)c1ccccc1 [tamoxifen],,80%,significantly inhibited
